These results are taken from patent publication US12441722B2, “Therapeutic agents and methods of treatment” (University of Florida Research Foundation, Incorporated, priority 2020, dated 2025).

For assay [1], the system named is MOLT4 cells. Kind of assay: Protein degradation assay in MOLT4 cells (western blot). It counts as cell-based. As to conditions: MOLT4 cells incubated with various concentrations; the FIGURE. As to the method:
MOLT4 cells and human platelets can be incubated with increasing concentrations of test compounds for 16 h. The cells can be harvested and lysed in RIPA lysis buffer supplemented with protease and phosphatase inhibitor cocktails. An equal amount of protein (20 μg/lane) can be resolved on a pre-cast 4-20% SDS-PAGE gel. Proteins can be subsequently transferred to NOVEX PVDF membranes by electrophoresis. The membranes can be blocked in blocking buffer (5% non-fat dry milk in TBS-T), and can be incubated with primary antibodies (at optimized concentrations) overnight at 4° C. After washing in TBS-T, the membranes can be incubated with an appropriate HRP-conjugated secondary antibody for 1 h at room temperature. After extensive washing, the proteins of interest can be detected with ECL western blotting detection reagents and recorded with autoradiography (Pierce Biotech, Rockford, IL, USA). The primary antibodies for Bcl-xL (Cat #2762), Bcl-2 (Cat #2872), Mcl-1 (Cat #5453) and β-actin (Cat #4970) can be purchased from Cell Signaling technology. The relative band intensity can be measured using ImageJ software and normalized to b-actin. The DC50 (concentration with 50% degradation) can be calculated using GraphPad Prism.

Assay [2] deals with MOLT-4. Kind of assay: Cell viability assay (tetrazolium-based MTS) in MOLT4 cells. The settings on record: 48 h incubation. As to the method: Cancer cells from acute lymphoblastic leukemia (MOLT4) were incubated with increasing concentrations of compounds of Examples 1-9 for 48 h. Cell viability was measured by tetrazolium-based MTS assay. 5×10^4 to 1×10^5 suspension cells or 3×10^3 to 5×10^3 adherent cells were seeded and treated in 96-well plates for 48 h. The EC50 values of individual agents were calculated with GraphPad Prism.

The mark [3] stands for this setting: Homo sapiens, MOLT-4, MOLT4 acute lymphoblastic leukemia cells.
[4] abbreviates: MOLT4 acute lymphoblastic leukemia cells.

Usually pEC50 stands for −log10 of the EC50, conventionally taken in molar units. A higher pEC50 goes with a small EC50.

SMILES strings stand for the structures. pEC50: −log10 of the molar value. Bounds are passed on as bounds.

As for `Cc1c(-c2ccc(N3CCc4cccc(C(=O)Nc5nc6ccccc6s5)c4C3)nc2C(=O)NCCOCCOCCOCCNc2cccc3c2C(=O)N(C2CCC(=O)NC2=O)C3=O)cnn1CC12CC3CC(CC(C3)C1)C2` (stereo not shown) [degrader #8, 2-(5-(1-(adamantan-1-ylmethyl)-5-methyl-1H-pyrazol-4-yl)-6-((2-(2-(2-(2-((2-(2,6-dioxopiperidin-3-yl)-1,3-dioxoisoindolin-4-yl)amino)ethoxy)ethoxy)ethoxy)ethyl)carbamoyl)pyridin-2-yl)-N-(benzo[d]thiazol-2-yl)-1,2,3,4-tetrahydroisoquinoline-8-carboxamide], the “protein degradation (western blot)” value in assay [1] is “protein degradation”. The pEC50 in assay [2] (setting [3]) is more than 8.00. With `Cc1ncsc1-c1ccc([C@H](C)NC(=O)[C@@H]2C[C@@H](O)CN2C(=O)[C@@H](NC(=O)CCNC(=O)C23CC4CC(CC(Cn5ncc(-c6ccc(N7CCc8cccc(C(=O)Nc9nc%10ccccc%10s9)c8C7)nc6C(=O)O)c5C)(C4)C2)C3)C(C)(C)C)cc1` [degrader #41, 6-(8-(benzo[d]thiazol-2-ylcarbamoyl)-3,4-dihydroisoquinolin-2(1H)-yl)-3-(1-(((1S,3r)-3-((3-(((S)-1-((2S,4R)-4-hydroxy-2-(((S)-1-(4-(4-methylthiazol-5-yl)phenyl)ethyl)carbamoyl)pyrrolidin-1-yl)-3,3-dimethyl-1-oxobutan-2-yl)amino)-3-oxopropyl)carbamoyl)adamantan-1-yl)methyl)-5-methyl-1H-pyrazol-4-yl)picolinic acid], the pEC50 in assay [2] (setting [4]) is less than 6.00. `Cc1ncsc1-c1ccc([C@H](CC(=O)NCCNC(=O)c2nc(N3CCc4cccc(C(=O)Nc5nc6ccccc6s5)c4C3)ccc2-c2cnn(CC34CC5CC(CC(C5)C3)C4)c2C)NC(=O)[C@@H]2C[C@@H](O)CN2C(=O)[C@@H](NC(=O)C2(C#N)CC2)C(C)(C)C)cc1` [degrader #20, 2-(5-(1-(adamantan-1-ylmethyl)-5-methyl-1H-pyrazol-4-yl)-6-((2-((S)-3-((2S,4R)-1-((S)-2-(1-cyanocyclopropane-1-carboxamido)-3,3-dimethylbutanoyl)-4-hydroxypyrrolidine-2-carboxamido)-3-(4-(4-methylthiazol-5-yl)phenyl)propanamido)ethyl)carbamoyl)pyridin-2-yl)-N-(benzo[d]thiazol-2-yl)-1,2,3,4-tetrahydroisoquinoline-8-carboxamide]: the negative logarithm of the EC50 (pEC50) in assay [2] (setting [3]) is 7.00 to 8.00. In turn, `Cc1c(-c2ccc(N3CCc4cccc(C(=O)Nc5nc6ccccc6s5)c4C3)nc2C(=O)NCCOCCOCCOCC#Cc2cccc3c2C(=O)N(C2CCC(=O)NC2=O)C3=O)cnn1CC12CC3CC(CC(C3)C1)C2` (stereo not shown) [degrader #26, 2-(5-(1-(adamantan-1-ylmethyl)-5-methyl-1H-pyrazol-4-yl)-6-((2-(2-(2-((3-(2-(2,6-dioxopiperidin-3-yl)-1,3-dioxoisoindolin-4-yl)prop-2-yn-1-yl)oxy)ethoxy)ethoxy)ethyl)carbamoyl)pyridin-2-yl)-N-(benzo[d]thiazol-2-yl)-1,2,3,4-tetrahydroisocuinoline-8-carboxamide] gave a pEC50 in assay [2] (setting [4]) of 7.00 to 8.00. In assay [2] (setting [4]), `Cc1c(-c2ccc(N3CCc4cccc(C(=O)Nc5nc6ccccc6s5)c4C3)nc2C(=O)NCCOCCOCCOCCCc2cccc3c2CN(C2CCC(=O)NC2=O)C3=O)cnn1CC12CC3CC(CC(C3)C1)C2` (stereo not shown) [degrader #32] had a pEC50 of more than 8.00. The same measure, in the same setting: to `Cc1ncsc1-c1ccc([C@H](CC(=O)NCCCCCCNC(=O)c2nc(N3CCc4cccc(C(=O)Nc5nc6ccccc6s5)c4C3)ccc2-c2cnn(CC34CC5CC(CC(C5)C3)C4)c2C)NC(=O)[C@@H]2C[C@@H](O)CN2C(=O)[C@@H](NC(=O)C2(C#N)CC2)C(C)(C)C)cc1` [degrader #24, 2-(5-(1-(adamantan-1-ylmethyl)-5-methyl-1H-pyrazol-4-yl)-6-((6-((S)-3-((2S,4R)-1-((S)-2-(1-cyanocyclopropane-1-carboxamido)-3,3-dimethylbutanoyl)-4-hydroxypyrrolidine-2-carboxamido)-3-(4-(4-methylthiazol-5-yl)phenyl)propanamido)hexyl)carbamoyl)pyridin-2-yl)-N-(benzo[d]thiazol-2l)-1,2,3,4-tetrahydroisoquinoline-8-carboxamide] belongs 6.00 to 7.00.
